In ChEMBL document CHEMBL4118122, “Identification and biological evaluation of thiazole-based inverse agonists of RORγt” (Bioorg Med Chem Lett, 2018):
Values after ≈ are worked out from the molar mass of the structure shown.

Columns and labels:
Cytochrome P450 2D6 = Cytochrome P450 2D6 (Homo sapiens, UniProt P10635); assay: Inhibition of CYP2D6 (unknown origin); type: ADME
Cytochrome P450 2C9 = Cytochrome P450 2C9 (Homo sapiens, UniProt P11712); assay: Inhibition of CYP2C9 (unknown origin); type: ADME
Sequence of Cytochrome P450 2C9 (P11712 whole entry): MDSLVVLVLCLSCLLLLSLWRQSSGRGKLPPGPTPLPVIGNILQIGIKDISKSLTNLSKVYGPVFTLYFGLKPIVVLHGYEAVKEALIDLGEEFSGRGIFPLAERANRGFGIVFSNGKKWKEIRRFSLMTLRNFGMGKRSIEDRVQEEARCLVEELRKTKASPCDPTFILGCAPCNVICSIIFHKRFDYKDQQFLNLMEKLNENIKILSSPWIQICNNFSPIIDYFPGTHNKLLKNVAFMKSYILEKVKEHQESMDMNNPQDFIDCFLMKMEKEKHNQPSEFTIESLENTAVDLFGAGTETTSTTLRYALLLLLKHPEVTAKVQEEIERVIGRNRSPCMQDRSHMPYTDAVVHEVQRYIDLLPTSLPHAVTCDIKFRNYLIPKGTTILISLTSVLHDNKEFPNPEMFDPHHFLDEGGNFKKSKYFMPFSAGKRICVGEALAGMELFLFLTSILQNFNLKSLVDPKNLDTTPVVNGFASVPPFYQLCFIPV

[1] = Thermodynamic solubility of the compound in fasted state simulated intestinal […] after 2 to 5 days by UV-HPLC analysis; type: physicochemical; details: read-out: Therm_solubility
Cytochrome P450 2C19 = Cytochrome P450 2C19 (Homo sapiens, UniProt P33261); assay: Inhibition of CYP2C19 (unknown origin); type: ADME
Sequence of Cytochrome P450 2C19 (P33261 whole entry): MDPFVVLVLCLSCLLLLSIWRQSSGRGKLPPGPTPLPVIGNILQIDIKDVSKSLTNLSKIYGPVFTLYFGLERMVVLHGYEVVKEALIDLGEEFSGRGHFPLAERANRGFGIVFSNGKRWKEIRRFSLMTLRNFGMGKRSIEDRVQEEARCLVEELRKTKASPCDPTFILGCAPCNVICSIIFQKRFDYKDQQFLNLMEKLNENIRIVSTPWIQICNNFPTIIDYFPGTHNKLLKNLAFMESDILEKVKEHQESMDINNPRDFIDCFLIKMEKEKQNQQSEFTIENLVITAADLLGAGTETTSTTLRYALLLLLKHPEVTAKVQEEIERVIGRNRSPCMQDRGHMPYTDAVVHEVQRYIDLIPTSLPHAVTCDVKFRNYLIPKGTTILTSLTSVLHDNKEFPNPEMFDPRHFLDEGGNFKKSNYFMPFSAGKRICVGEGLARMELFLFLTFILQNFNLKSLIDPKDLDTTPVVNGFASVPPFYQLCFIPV

Cytochrome P450 3A4 = Cytochrome P450 3A4 (Homo sapiens, UniProt P08684); assay: Inhibition of CYP3A4 (unknown origin); type: ADME
Sequence of Cytochrome P450 3A4 (P08684 whole entry): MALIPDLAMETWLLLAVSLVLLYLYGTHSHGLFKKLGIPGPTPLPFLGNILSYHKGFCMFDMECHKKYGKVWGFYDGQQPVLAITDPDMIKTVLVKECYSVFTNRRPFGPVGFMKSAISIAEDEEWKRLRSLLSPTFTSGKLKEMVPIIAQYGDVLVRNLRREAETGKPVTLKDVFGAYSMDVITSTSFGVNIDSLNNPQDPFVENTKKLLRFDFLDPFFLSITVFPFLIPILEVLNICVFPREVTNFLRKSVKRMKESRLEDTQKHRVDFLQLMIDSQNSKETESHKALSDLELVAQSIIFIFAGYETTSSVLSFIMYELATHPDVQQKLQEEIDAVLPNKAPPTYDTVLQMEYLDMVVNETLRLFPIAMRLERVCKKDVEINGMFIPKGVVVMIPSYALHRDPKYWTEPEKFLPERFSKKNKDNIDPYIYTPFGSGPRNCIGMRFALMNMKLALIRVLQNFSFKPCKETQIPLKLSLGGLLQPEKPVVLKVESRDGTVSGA

Cytochrome P450 2C8 = target: T1, Cytochrome P450 2C8 (Homo sapiens, UniProt P10632); assay: Inhibition of CYP2C8 (unknown origin); type: ADME
T1 sequence (P10632 whole entry): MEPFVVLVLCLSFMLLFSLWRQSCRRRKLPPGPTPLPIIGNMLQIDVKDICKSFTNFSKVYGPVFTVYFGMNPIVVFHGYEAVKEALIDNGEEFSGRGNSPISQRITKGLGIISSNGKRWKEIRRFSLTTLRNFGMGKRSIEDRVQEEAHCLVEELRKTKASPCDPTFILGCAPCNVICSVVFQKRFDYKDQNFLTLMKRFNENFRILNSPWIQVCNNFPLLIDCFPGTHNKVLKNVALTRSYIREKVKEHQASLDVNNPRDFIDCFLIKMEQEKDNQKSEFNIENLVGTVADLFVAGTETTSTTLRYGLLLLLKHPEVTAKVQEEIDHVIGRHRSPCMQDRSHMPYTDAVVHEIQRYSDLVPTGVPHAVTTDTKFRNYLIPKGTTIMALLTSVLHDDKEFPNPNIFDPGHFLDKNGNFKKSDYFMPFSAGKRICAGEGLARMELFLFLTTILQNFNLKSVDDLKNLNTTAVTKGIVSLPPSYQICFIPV

[2] = Thermodynamic solubility of the compound in 30 mM phosphate buffer at 10 mM at pH 7 after 2 to 5 days by UV-HPLC analysis; type: physicochemical; details: read-out: Therm_solubility
Cytochrome P450 1A2 = target: T2, Cytochrome P450 1A2 (Homo sapiens, UniProt P05177); assay: Inhibition of CYP1A2 (unknown origin); type: ADME
T2 sequence (P05177 whole entry): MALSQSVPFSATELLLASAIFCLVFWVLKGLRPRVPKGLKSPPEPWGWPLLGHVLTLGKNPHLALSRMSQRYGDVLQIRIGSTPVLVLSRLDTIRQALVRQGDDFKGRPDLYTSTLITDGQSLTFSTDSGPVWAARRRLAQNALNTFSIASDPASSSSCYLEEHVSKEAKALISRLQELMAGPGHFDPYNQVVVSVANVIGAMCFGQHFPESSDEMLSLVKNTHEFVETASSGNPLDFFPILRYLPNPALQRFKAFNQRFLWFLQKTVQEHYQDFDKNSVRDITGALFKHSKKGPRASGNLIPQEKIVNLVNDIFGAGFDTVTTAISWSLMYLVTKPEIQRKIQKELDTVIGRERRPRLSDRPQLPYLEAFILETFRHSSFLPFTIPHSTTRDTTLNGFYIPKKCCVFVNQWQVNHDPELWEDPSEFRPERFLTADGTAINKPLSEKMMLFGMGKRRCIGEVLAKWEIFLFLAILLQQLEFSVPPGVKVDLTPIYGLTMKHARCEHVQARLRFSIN

[3] = Half life in rat microsomes; type: ADME, Microsome
[4] = Half life in human microsomes; type: ADME, Microsome
PXR (NR1I2) [5] = target: T3, PXR (NR1I2) (Homo sapiens, UniProt O75469); assay: […] at PXR LBD (unknown origin) expressed in HEK293 cells […] at 1 uM after 16 hrs by luciferase reporter gene assay relative to rifampicin; type: ADME, cell-based; details: HEK293 cells expressing PXR LBD, read-out: Efficacy
T3 sequence (O75469 whole entry): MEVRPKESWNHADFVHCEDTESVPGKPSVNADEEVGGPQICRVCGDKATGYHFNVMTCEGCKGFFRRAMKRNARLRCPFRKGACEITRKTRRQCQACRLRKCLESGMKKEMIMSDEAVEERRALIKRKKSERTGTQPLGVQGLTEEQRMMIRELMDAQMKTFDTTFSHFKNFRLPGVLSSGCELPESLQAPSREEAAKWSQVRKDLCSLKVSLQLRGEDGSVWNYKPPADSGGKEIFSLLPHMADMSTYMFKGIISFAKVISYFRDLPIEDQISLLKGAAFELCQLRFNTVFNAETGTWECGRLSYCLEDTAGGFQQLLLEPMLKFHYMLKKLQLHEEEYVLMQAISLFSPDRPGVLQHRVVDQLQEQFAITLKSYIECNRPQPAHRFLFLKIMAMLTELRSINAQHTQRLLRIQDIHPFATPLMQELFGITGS

PXR (NR1I2) [6] = target: T3, PXR (NR1I2); assay: […] at PXR LBD (unknown origin) expressed in HEK293 cells […] at 10 uM after 16 hrs by luciferase reporter gene assay relative to rifampicin; type: ADME, cell-based; details: HEK293 cells expressing PXR LBD, read-out: Efficacy
[7] = target: T4, Nuclear receptor ROR-beta (Homo sapiens, UniProt Q92753); assay: Binding affinity to recombinant human RORbeta LBD (201 to 452 residues) expressed in Escherichia coli BL21 (DE3) GOLD by 1,8-ANS dye-based thermofluor assay
T4 sequence (Q92753 whole entry): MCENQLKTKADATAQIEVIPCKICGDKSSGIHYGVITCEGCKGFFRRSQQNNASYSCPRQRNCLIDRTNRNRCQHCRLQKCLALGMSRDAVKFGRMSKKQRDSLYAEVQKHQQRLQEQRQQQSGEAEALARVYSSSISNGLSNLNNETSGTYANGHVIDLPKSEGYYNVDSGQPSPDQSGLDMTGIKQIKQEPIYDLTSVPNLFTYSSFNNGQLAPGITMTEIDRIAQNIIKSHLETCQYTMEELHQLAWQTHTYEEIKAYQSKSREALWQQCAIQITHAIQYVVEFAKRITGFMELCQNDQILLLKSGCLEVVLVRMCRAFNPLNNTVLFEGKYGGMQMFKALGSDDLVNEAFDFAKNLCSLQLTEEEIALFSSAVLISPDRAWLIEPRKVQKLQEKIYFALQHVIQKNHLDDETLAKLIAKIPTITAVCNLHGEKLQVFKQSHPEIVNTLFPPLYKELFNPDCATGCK

[8] = Tmax in Sprague-Dawley rat at 5 mg/kg, po; type: ADME, organism-based; details: in vivo
[9] = AUC (0 to infinity) in Sprague-Dawley rat at 1 mg/kg, iv; type: ADME, organism-based; design: dose 1 mg/kg, time infinity, route intravenous; details: in vivo
[10] = Cmax in Sprague-Dawley rat at 5 mg/kg, po; type: ADME, organism-based; design: dose 5 mg/kg, route oral; details: in vivo
[11] = Oral bioavailability in Sprague-Dawley rat at 5 mg/kg; type: ADME, organism-based; details: in vivo
[12] = Terminal half life in Sprague-Dawley rat at 5 mg/kg, po; type: ADME, organism-based; details: in vivo, read-out: beta t1/2 (converted)
[13] = Initial plasma concentration in Sprague-Dawley rat at 1 mg/kg, iv; type: ADME, organism-based
[14] = Clearance in Sprague-Dawley rat at 1 mg/kg, iv; type: ADME, organism-based; details: in vivo
[15] = Volume of distribution at steady state in Sprague-Dawley rat at 1 mg/kg, iv; type: ADME, organism-based; details: in vivo, read-out: Vdss
[16] = AUC (0 to infinity) in Sprague-Dawley rat at 5 mg/kg, po; type: ADME, organism-based; design: dose 5 mg/kg, route oral, time infinity; details: in vivo
[17] = Half life in Sprague-Dawley rat at 1 mg/kg, iv; type: ADME, organism-based; details: in vivo
PXR (NR1I2) [18] = target: T3, PXR (NR1I2); assay: […] at PXR LBD (unknown origin) expressed in HEK293 cells […] at 5 uM after 16 hrs by luciferase reporter gene assay relative to rifampicin; type: ADME, cell-based; details: HEK293 cells expressing PXR LBD, read-out: Efficacy

Sequence of Cytochrome P450 2D6 (P10635 whole entry): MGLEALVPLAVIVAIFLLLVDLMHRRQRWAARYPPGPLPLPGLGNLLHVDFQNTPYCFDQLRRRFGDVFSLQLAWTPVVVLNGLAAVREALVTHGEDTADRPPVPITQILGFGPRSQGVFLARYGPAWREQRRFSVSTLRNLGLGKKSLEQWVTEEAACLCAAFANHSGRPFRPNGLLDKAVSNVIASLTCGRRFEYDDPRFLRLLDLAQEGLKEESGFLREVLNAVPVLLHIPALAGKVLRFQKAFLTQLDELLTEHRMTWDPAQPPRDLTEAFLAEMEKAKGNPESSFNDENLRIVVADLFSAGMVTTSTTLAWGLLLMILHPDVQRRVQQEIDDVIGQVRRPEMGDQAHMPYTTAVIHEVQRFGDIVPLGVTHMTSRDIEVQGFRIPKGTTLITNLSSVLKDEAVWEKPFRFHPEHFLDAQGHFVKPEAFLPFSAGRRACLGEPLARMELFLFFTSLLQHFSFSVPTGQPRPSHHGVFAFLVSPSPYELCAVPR

Structure (SMILES)	INH (Cytochrome P450 2D6)	INH (Cytochrome P450 2C9)	INH (Cytochrome P450 2C19)	INH (Cytochrome P450 3A4)	INH (Cytochrome P450 2C8)	solubility thermodynamic at 10000 µM [2]	INH (Cytochrome P450 1A2)	half-life [3]	half-life [4]	Emax at 16 h, 1 µM (PXR (NR1I2) [5])	Kd [7]	Tmax [8]	AUC(0-inf) [9]	Cmax [10]	bioavailability [11]	half-life [12]	C0 [13]	clearance [14]	Vd [15]	Emax at 16 h, 5 µM (PXR (NR1I2) [18])	other results
CC(C)(C)NS(=O)(=O)c1ccc(-c2sc(C(=O)N[C@H]3C[C@H](C(=O)O)C3)nc2CC2CCCCC2)c(C(F)(F)F)c1	> 10 µM	> 10 µM	> 10 µM	> 10 µM	3.4 µM	< 4 µM	> 10 µM	2.33 h	> 3 h	–	–	–	–	–	–	–	–	–	–	–	solubility thermodynamic [1]: > 400 µM
Cc1c(S(=O)(=O)NC(C)(C)C)ccc(-c2sc(C(=O)N[C@H]3C[C@H](C(=O)O)C3)nc2CC2CCCCC2)c1OC(F)F	> 10 µM	8.7 µM	> 10 µM	> 10 µM	4 µM	< 1 µM	> 10 µM	0.433 h	0.617 h	86%	–	–	–	–	–	–	–	–	–	–	solubility thermodynamic [1]: 50 µM (≈ 30.7 µg/mL); Emax at 16 h, 10 µM (PXR (NR1I2) [6]): 173%
CC(C)(C)NS(=O)(=O)c1ccc(-c2sc(C(=O)N[C@H]3C[C@H](C(=O)O)C3)nc2CC2CCCCC2)c(Cl)c1	> 10 µM	> 10 µM	> 10 µM	> 10 µM	3.5 µM	6.6 µM (≈ 3.75 µg/mL)	> 10 µM	1.22 h	1.68 h	101%	> 75 µM	0.8 h	162 ng·h/mL	130 ng/mL	20%	2.1 h	2300 ng/mL	107 mL/min/kg	2.3 L/kg	–	AUC(0-inf) [16]: 328 ng·h/mL; half-life [17]: 0.5 h; Emax at 16 h, 10 µM (PXR (NR1I2) [6]): 178%
CC(C)(C)NS(=O)(=O)c1ccc(-c2sc(C(=O)N3CC4(C3)CS(=O)(=O)C4)nc2CC2CCCCC2)c2ccccc12	–	–	–	–	–	–	–	–	–	–	> 85 µM	–	–	–	–	–	–	–	–	–	–
CC(C)NS(=O)(=O)c1ccc(-c2sc(C(=O)N[C@H]3C[C@H](C(=O)O)C3)nc2CC2CCCCC2)c(C(F)F)c1Cl	> 10 µM	7.6 µM	> 10 µM	> 10 µM	6.2 µM	11 µM (≈ 6.65 µg/mL)	> 10 µM	1.42 h	1.88 h	66%	–	–	–	–	–	–	–	–	–	113%	solubility thermodynamic [1]: > 400 µM
C[C@H](NS(=O)(=O)c1ccc(-c2sc(C(=O)NC3CCS(=O)(=O)CC3)nc2CC2CC2)c2ccccc12)C(F)(F)F	> 10 µM	2.9 µM	> 10 µM	> 10 µM	> 10 µM	< 4 µM	> 10 µM	2.35 h	1.67 h	99%	> 69 µM	1.7 h	792 ng·h/mL	276 ng/mL	42.5%	2.6 h	470 ng/mL	21.6 mL/min/kg	3.4 L/kg	131%	AUC(0-inf) [16]: 1700 ng·h/mL; half-life [17]: 3.8 h

Now from value to molecule, other results behind:

INH (Cytochrome P450 2D6)	INH (Cytochrome P450 2C9)	INH (Cytochrome P450 2C19)	INH (Cytochrome P450 3A4)	INH (Cytochrome P450 2C8)	solubility thermodynamic at 10000 µM [2]	INH (Cytochrome P450 1A2)	half-life [3]	half-life [4]	Emax at 16 h, 1 µM (PXR (NR1I2) [5])	Kd [7]	Tmax [8]	AUC(0-inf) [9]	Cmax [10]	bioavailability [11]	half-life [12]	C0 [13]	clearance [14]	Vd [15]	Emax at 16 h, 5 µM (PXR (NR1I2) [18])	Structure (SMILES)	other results
> 10 µM	0.4 µM	2 µM	> 10 µM	3.3 µM	< 4 µM	> 10 µM	0.9 h	> 3 h	122%	–	0.8 h	415 ng·h/mL	55 ng/mL	14.8%	6.9 h	119 ng/mL	40.7 mL/min/kg	29.5 L/kg	188%	C[C@H](NS(=O)(=O)c1ccc(-c2sc(C(=O)NCC(C)(C)O)nc2CC2CC2)c2ccccc12)C(F)(F)F	AUC(0-inf) [16]: 314 ng·h/mL; half-life [17]: 10.2 h
–	–	–	–	–	–	–	–	–	69%	> 78 µM	–	–	–	–	–	–	–	–	122%	C[C@H](NS(=O)(=O)c1ccc(-c2sc(C(=O)NCC(C)(C)O)nc2-c2cccc(F)c2)c(Cl)c1Cl)C(F)(F)F	–
–	–	–	–	–	–	–	–	–	60%	> 76 µM	–	–	–	–	–	–	–	–	68%	C[C@H](NS(=O)(=O)c1ccc(-c2sc(C(=O)NCC(C)(C)O)nc2C2CCCCC2)c(Cl)c1Cl)C(F)(F)F	–
5.4 µM	2.7 µM	3 µM	> 10 µM	> 10 µM	< 4 µM	> 10 µM	0.95 h	> 3 h	74%	> 72 µM	1.7 h	198 ng·h/mL	57 ng/mL	32.5%	3.2 h	310 ng/mL	46.7 mL/min/kg	5.4 L/kg	144%	C[C@H](NS(=O)(=O)c1ccc(-c2sc(C(=O)NCC(C)(C)O)nc2CC2CCC2)c(C(F)F)c1)C(F)(F)F	AUC(0-inf) [16]: 321 ng·h/mL; half-life [17]: 1.9 h
